Test results from patent publication US7192906B2, “Substituted pyrazole derivatives, production process thereof, and herbicide compositions containing the derivatives” (SDS Biotech K.K., priority 2001, dated 2007).

Columns and labels:
Format in all cases: in vivo
Digitaria adscendens [1] = assay: Test Example 1 upland field foliage treatment; settings: Table 4, upland field foliage treatment, index 0-5
In short: (§1)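 A leaf-surface application at an active-ingredient rate of 1 kg per hectare was made to 14-day-old plants in upland soil. Evaluation followed 21 days later using a six-grade scale, where grade 5 means at least 90% kill or phytotoxicity.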

Setaria viridis [2] = assay: Test Example 1 upland field foliage treatment; settings: Table 4, upland field foliage treatment, index 0-5
In short: as §1

Stellaria media [3] = assay: Test Example 1 upland field foliage treatment; settings: Table 4, upland field foliage treatment, index 0-5
In short: as §1

Chenopodium album [4] = assay: Test Example 1 upland field foliage treatment; settings: Table 4, upland field foliage treatment, index 0-5
In short: as §1

Rice (Oryza sativa) = assay: Test Example 3 paddy field treatment, crop phytotoxicity; settings: active ingredient 1 kg per hectare, index 0-5; for Herbicidal activity (phytotoxicity) OS: Table 6, paddy field treatment, transplanted rice, 21st day after dropping
In short: (§2)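 Scoring used a 0–5 scale of herbicidal effect or phytotoxicity, from <10% to ≥90%, taken 21 days after treatment. Treatment was 1 kg a.i./ha as diluted wettable powder dripped onto 4 cm-deep flooded pots sown with the weeds, 10 days after transplanting two-leaf Koshihikari rice.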

soybean (Glycine max) [5] = assay: Test Example 2 upland soil treatment, crop phytotoxicity; settings: Table 5, upland soil treatment, index 0-5
In short: (§3)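 Dose of 1 kg active ingredient per hectare, given as diluted wettable powder to the soil surface the day after sowing in upland soil (~1 cm cover). Effect rated 21 days on: 5 for ≥90%, 4 for 70–<90%, down to 0 for <10%.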

[6] = test system: wheat (Triticum aestivum); assay: as above; settings: Table 5, upland soil treatment, index 0-5
In short: as §3

Scirpus juncoides = assay: Test Example 3 paddy field treatment; settings: active ingredient 1 kg per hectare, index 0-5
In short: as §2

Ammannia multiflora = assay: Test Example 3 paddy field treatment; settings: active ingredient 1 kg per hectare, index 0-5
In short: as §2

Monochoria vaginalis = assay: Test Example 3 paddy field treatment; settings: active ingredient 1 kg per hectare, index 0-5
In short: as §2

Echinochloa crusgalli = assay: Test Example 3 paddy field treatment; settings: active ingredient 1 kg per hectare, index 0-5
In short: as §2

soybean (Glycine max) [7] = assay: Test Example 1 upland field foliage treatment, crop phytotoxicity; settings: Table 4, upland field foliage treatment, index 0-5
In short: as §1

[8] = test system: wheat (Triticum aestivum); assay: as above; settings: Table 4, upland field foliage treatment, index 0-5
In short: as §1

Digitaria adscendens [9] = assay: Test Example 2 upland soil treatment; settings: Table 5, upland soil treatment, index 0-5
In short: as §3

Setaria viridis [10] = assay: Test Example 2 upland soil treatment; settings: Table 5, upland soil treatment, index 0-5
In short: as §3

Stellaria media [11] = assay: Test Example 2 upland soil treatment; settings: Table 5, upland soil treatment, index 0-5
In short: as §3

Chenopodium album [12] = assay: Test Example 2 upland soil treatment; settings: Table 5, upland soil treatment, index 0-5
In short: as §3

[13] = paddy field treatment, wettable powder, 21st day after the dropping
[14] = Table 6, paddy field treatment, 21st day after dropping

SMILES | Herbicidal activity DA: Digitaria adscendens (Digitaria adscendens [1]) | Herbicidal activity SV: Setaria viridis (Setaria viridis [2]) | Herbicidal activity SM: Stellaria media (Stellaria media [3]) | Herbicidal activity CA: Chenopodium album (Chenopodium album [4]) | Herbicidal activity (phytotoxicity) GM: Soybean (Glycine max) (soybean (Glycine max) [5]) | Herbicidal activity (phytotoxicity) TA: Wheat (Triticum aestivum) [6] | Herbicidal activity (phytotoxicity) GM: Soybean (Glycine max) (soybean (Glycine max) [7]) | Herbicidal activity (phytotoxicity) TA: Wheat (Triticum aestivum) [8] | Herbicidal activity DA: Digitaria adscendens (Digitaria adscendens [9]) | Herbicidal activity SV: Setaria viridis (Setaria viridis [10]) | Herbicidal activity SM: Stellaria media (Stellaria media [11]) | Herbicidal activity CA: Chenopodium album (Chenopodium album [12]) | Herbicidal activity (phytotoxicity) OS (Rice (Oryza sativa)) | Herbicidal activity SJ (Scirpus juncoides; [14]) | Herbicidal activity AM (Ammannia multiflora; [14]) | Herbicidal activity MV (Monochoria vaginalis; [14]) | Herbicidal activity EC (Echinochloa crusgalli; [14]) | further results
CNC(=O)C(Cn1cc(C)c(-c2ccc(Oc3ccccc3)cc2)n1)=NOC [Compound 53] | 5 (herbicidal effect of not less than 90%, or phytotoxicity of 90% or more) | 4 (herbicidal effect of not less than 70% and less than 90%, or phytotoxicity of 70% or more and less than 90%) | 4 (herbicidal effect of not less than 70% and less than 90%, or phytotoxicity of 70% or more and less than 90%) | 5 (herbicidal effect of not less than 90%, or phytotoxicity of 90% or more) | 0 (herbicidal effect of not less than 0% and less than 10%, or phytotoxicity of 0% or more and less than 10%) | 0 (herbicidal effect of not less than 0% and less than 10%, or phytotoxicity of 0% or more and less than 10%) | 0 (herbicidal effect of not less than 0% and less than 10%, or phytotoxicity of 0% or more and less than 10%) | 0 (herbicidal effect of not less than 0% and less than 10%, or phytotoxicity of 0% or more and less than 10%) | 5 (herbicidal effect of not less than 90%, or phytotoxicity of 90% or more) | 3 (herbicidal effect of not less than 50% and less than 70%, or phytotoxicity of 50% or more and less than 70%) | 4 (herbicidal effect of not less than 70% and less than 90%, or phytotoxicity of 70% or more and less than 90%) | 4 (herbicidal effect of not less than 70% and less than 90%, or phytotoxicity of 70% or more and less than 90%) |  |  |  |  |  | Herbicidal activity OS (phytotoxicity to rice) (Rice (Oryza sativa); paddy field treatment, transplanted rice Koshihikari, wettable powder, 21st day after the dropping): 0 (herbicidal effect of not less than 0% and less than 10%, or phytotoxicity of 0% or more and less than 10%); Herbicidal activity SJ (Scirpus juncoides; [13]): 5 (herbicidal effect of not less than 90%, or phytotoxicity of 90% or more); Herbicidal activity AM (Ammannia multiflora; [13]): 5 (herbicidal effect of not less than 90%, or phytotoxicity of 90% or more); Herbicidal activity MV (Monochoria vaginalis; [13]): 5 (herbicidal effect of not less than 90%, or phytotoxicity of 90% or more); Herbicidal activity EC (Echinochloa crusgalli; [13]): 5 (herbicidal effect of not less than 90%, or phytotoxicity of 90% or more)
CNC(=O)C(Cn1cc(C)c(-c2ccc(F)cc2F)n1)=NOC [Compound 56] | 5 (herbicidal effect of not less than 90%, or phytotoxicity of 90% or more) | 5 (herbicidal effect of not less than 90%, or phytotoxicity of 90% or more) | 5 (herbicidal effect of not less than 90%, or phytotoxicity of 90% or more) | 5 (herbicidal effect of not less than 90%, or phytotoxicity of 90% or more) | 1 (herbicidal effect of not less than 10% and less than 30%, or phytotoxicity of 10% or more and less than 30%) | 0 (herbicidal effect of not less than 0% and less than 10%, or phytotoxicity of 0% or more and less than 10%) | 0 (herbicidal effect of not less than 0% and less than 10%, or phytotoxicity of 0% or more and less than 10%) | 0 (herbicidal effect of not less than 0% and less than 10%, or phytotoxicity of 0% or more and less than 10%) | 5 (herbicidal effect of not less than 90%, or phytotoxicity of 90% or more) | 5 (herbicidal effect of not less than 90%, or phytotoxicity of 90% or more) | 5 (herbicidal effect of not less than 90%, or phytotoxicity of 90% or more) | 5 (herbicidal effect of not less than 90%, or phytotoxicity of 90% or more) | 0 (herbicidal effect of not less than 0% and less than 10%, or phytotoxicity of 0% or more and less than 10%) | 5 (herbicidal effect of not less than 90%, or phytotoxicity of 90% or more) | 5 (herbicidal effect of not less than 90%, or phytotoxicity of 90% or more) | 5 (herbicidal effect of not less than 90%, or phytotoxicity of 90% or more) | 5 (herbicidal effect of not less than 90%, or phytotoxicity of 90% or more) | 
CNC(=O)C(Cn1cc(C)c(-c2cc(F)ccc2F)n1)=NOC [Compound 57] | 5 (herbicidal effect of not less than 90%, or phytotoxicity of 90% or more) | 5 (herbicidal effect of not less than 90%, or phytotoxicity of 90% or more) | 5 (herbicidal effect of not less than 90%, or phytotoxicity of 90% or more) | 5 (herbicidal effect of not less than 90%, or phytotoxicity of 90% or more) | 0 (herbicidal effect of not less than 0% and less than 10%, or phytotoxicity of 0% or more and less than 10%) | 0 (herbicidal effect of not less than 0% and less than 10%, or phytotoxicity of 0% or more and less than 10%) | 0 (herbicidal effect of not less than 0% and less than 10%, or phytotoxicity of 0% or more and less than 10%) | 0 (herbicidal effect of not less than 0% and less than 10%, or phytotoxicity of 0% or more and less than 10%) | 5 (herbicidal effect of not less than 90%, or phytotoxicity of 90% or more) | 5 (herbicidal effect of not less than 90%, or phytotoxicity of 90% or more) | 5 (herbicidal effect of not less than 90%, or phytotoxicity of 90% or more) | 5 (herbicidal effect of not less than 90%, or phytotoxicity of 90% or more) | 0 (herbicidal effect of not less than 0% and less than 10%, or phytotoxicity of 0% or more and less than 10%) | 5 (herbicidal effect of not less than 90%, or phytotoxicity of 90% or more) | 5 (herbicidal effect of not less than 90%, or phytotoxicity of 90% or more) | 5 (herbicidal effect of not less than 90%, or phytotoxicity of 90% or more) | 5 (herbicidal effect of not less than 90%, or phytotoxicity of 90% or more) | 
CNC(=O)C(Cn1cc(C)c(-c2ccc(F)c(F)c2)n1)=NOC [Compound 59] | 5 (herbicidal effect of not less than 90%, or phytotoxicity of 90% or more) | 5 (herbicidal effect of not less than 90%, or phytotoxicity of 90% or more) | 5 (herbicidal effect of not less than 90%, or phytotoxicity of 90% or more) | 5 (herbicidal effect of not less than 90%, or phytotoxicity of 90% or more) | 0 (herbicidal effect of not less than 0% and less than 10%, or phytotoxicity of 0% or more and less than 10%) | 0 (herbicidal effect of not less than 0% and less than 10%, or phytotoxicity of 0% or more and less than 10%) | 0 (herbicidal effect of not less than 0% and less than 10%, or phytotoxicity of 0% or more and less than 10%) | 0 (herbicidal effect of not less than 0% and less than 10%, or phytotoxicity of 0% or more and less than 10%) | 5 (herbicidal effect of not less than 90%, or phytotoxicity of 90% or more) | 5 (herbicidal effect of not less than 90%, or phytotoxicity of 90% or more) | 5 (herbicidal effect of not less than 90%, or phytotoxicity of 90% or more) | 5 (herbicidal effect of not less than 90%, or phytotoxicity of 90% or more) | 0 (herbicidal effect of not less than 0% and less than 10%, or phytotoxicity of 0% or more and less than 10%) | 5 (herbicidal effect of not less than 90%, or phytotoxicity of 90% or more) | 5 (herbicidal effect of not less than 90%, or phytotoxicity of 90% or more) | 5 (herbicidal effect of not less than 90%, or phytotoxicity of 90% or more) | 5 (herbicidal effect of not less than 90%, or phytotoxicity of 90% or more) | 
